Measured values: US7538185B2, “Glucagon-like peptide-1 analogs with long duration of action” (Theratechnologies Inc., priority 2004, dated 2009)

Experiments:
[1] = system: cAMP production in RINm5F cells; assay: cAMP production in RINm5F cells (Example 5); type: cell-based; settings: 30 minutes at 37° C., 0.1 mM IBMX, mean ± SEM
Experimental: RINm5F cells (ATCC # CRL-2058) were grown according to the manufacturer's specifications. Cells from approximately 90% confluent flasks were trypsinized and counted. […] Samples of the stock solutions were then aliquoted in 100 μl volumes (100 μg), to which were then added 400 μl H2O. The aliquots were then frozen and lyophilized overnight. The lyophilized samples were kept at −80° C. until used. The samples were prepared just prior to running the experiments, at a concentration of 1 mM (accounting for peptide purity and peptide content when available). From 2× stock solutions, dose-responses (10^−10 M to 10^−5 M) were measured in RPMI containing 0.1 mM IBMX. […] Cell culture media was gently aspired from the wells. The cells were then pre-incubated in 100 μl RPMI 0.1 mM IBMX at 37° C. for 10 minutes. […] At the end of the incubation period, the supernatant was collected and assayed for cAMP concentration, using a radioimmunoassay kit (DPC). Radioactive counts were transformed into cAMP amounts using a standard curve. The obtained cAMP values were corrected for the total protein in the corresponding wells as determined using the Coomassie blue assay. The cAMP values are expressed as mean ±SEM in pmol/mg protein (Table 3). Dose responses of cAMP were fitted to a sigmoidal curve model (fixed slope) using GraphPad Prism 3.02™. When performing a protein assay, the amount of protein per well is assayed for each sample. The cells were lysed with NaOH (0.1 N) and a 10 μl aliquot was used to assay the protein levels. This is done using Coomassie Blue (Pierce) and an automated plate reader Emax Pro™ (Molecular Devices).

[2] = system: streptozotocin-induced diabetic CD-1 mice; assay: Glucose lowering in fed streptozotocin-induced diabetic CD-1 mice (Example 8, FIGS. 12-16); type: in vivo; settings: for glucose levels of streptozotocin-induced diabetic mice / duration of action: fed STZ-induced diabetic CD-1 mice, sc; for duration of action: FIGS. 12-16
Experimental: Blood glucose levels were measured for 12 hours post-injection (mean ±SEM; upper panel). […] In order to compare the duration of the effects of TH0396 and Exendin-4™, the glucose levels at the last hour of observation were analyzed in a dose-dependent manner. […] At 10:00 am, the animals were injected subcutaneously with the agent. Blood glucose levels were measured for 12 hours post-injection (mean ±SEM; upper panel). Average glucose levels at 11 and 12 hours are presented after subtracting the fed glucose levels of normal mice (n is the number of animals as presented on top of the lower panel bars). The animals (CD-1 mice) were maintained on standard laboratory chow under a 12:12 light:dark cycle. The animals were kept in groups of 4 mice per cage. […] The amount of food eaten was monitored for the duration of the experiment. […] A small piece of the tip of the tail of the CD-1 mice was cut with a scalpel and a drop of blood drawn by applying light pressure with the thumb and index from the base of the tail to the tip. The drop of blood was placed on a glucometer strip (Accucheck™ compact, Roche) and a reading obtained. The scab was removed and the same procedure applied for each subsequent measurement.

CD-1 mice [3] = assay: Post-prandial glucose lowering in fed CD-1 mice (Example 6, FIG. 4); type: in vivo; settings: 400 μg/kg sc, AUC glucose over 6 hours
Experimental: Post-prandial AUC glucose levels for a 6 hour period are presented as a bar (mean ±SEM; n=the number of animals as presented above the bar). […] FIGS. 5, 6, 7 and 8 illustrate the effect (dose response) on post-prandial glucose levels in CD-1 mice for selected analogs. […] The blood glucose levels were measured for a period of up to 6 hours following injection (mean ±SEM; upper panel). The AUC glucose for the 6 hours period is presented as a bar (mean ±SEM; lower panel; n is the number of animals as presented on top of the lower panel bars); The animals (CD-1 mice) were maintained on standard laboratory chow under a 12:12 light:dark cycle. The animals were kept in groups of 4 mice per cage. […] The amount of food eaten was monitored. The food was then removed and the animals were injected subcutaneously with either vehicle or with a GLP-1 analogue to be tested. […] A small piece of the tip of the tail of the CD-1 mice was cut with a scalpel and a drop of blood drawn by applying light pressure with the thumb and index from the base of the tail to the tip. The drop of blood was placed on a glucometer strip (Accucheck™ compact, Roche) and a reading obtained. The scab was removed and the same procedure applied for each subsequent measurement.

CD-1 mice [4] = assay: Post-prandial blood glucose levels in CD-1 mice (Example 2, FIG. 1); type: in vivo; settings: CD-1 mice fasted overnight, fed 30 minutes, peptides 400 μg/kg sc, blood glucose followed 6 hours
Experimental: Various peptides, including peptides of the present invention (400 μg/kg), were administered sc at 30 minutes and the blood glucose levels were determined for the next 6 hours. The data are presented as mean ±SEM values;
Overnight fasted CD-1 normal female mice (6 wk. Charles River, Montreal, Canada), were fed ad libidum for 30 minutes. […] Blood samples were drawn by tail vein excision and blood glucose levels (mmol/L) were determined for the next 6 hours using a One-Touch™ glucometer.

Sprague-Dawley rats = assay: Blood glucose levels in Sprague-Dawley rats under hyperglycemic clamping (Example 3, FIG. 2); type: in vivo; settings: hyperglycemic clamping at 15 mM, sc
Experimental: Various peptides, including peptides of the present invention (100 μg/kg) were administered sc. Alterations in blood glucose levels (Delta glucose: mM) are shown on the abscissa. The data are presented as mean ±SEM values;
The animals (Sprague-Dawley rats) were maintained on standard laboratory chow under a 12:12 light:dark cycle. Following a 12 hour fasting period, the animals were anesthetized (Isoflurane 2%) and a carotid and jugular catheter installed to allow blood withdrawal and glucose injections (1.0 g/kg bolus followed by an infusion of 1.4 g/kg/hr) respectively. The animals received a subcutaneous injection of the analogs at different concentrations (300 μg/kg) 90 minutes after initiating the glucose bolus and infusion, at a time period where blood glucose concentrations have reached a steady level. Blood glucose measurements were taken prior to and 30, 60, 90, 100, 110, 120, 135, 150, 180, 210, and sometimes 240 and 300 minutes after the injection of glucose.
Glucose measurements were carried out immediately following sampling (0.3-0.4 ml; if needed) by placing a blood droplet on a glucometer strip. The glucose measurements were carried out prior to plasma separation (centrifugation) required to perform the insulin and/or any other assay.

[5] = target: T1, GLP-1 receptor in RINm5F cells (Rattus norvegicus, UniProt P32301); assay: Displacement of 125I-GLP-1(7-36)NH2 using RINm5F cells (Example 4, FIG. 3); type: binding; settings: RINm5F cell membranes, 400 μg protein, 22° C., 45 minutes
T1 construct: The cell membranes were diluted to obtain aliquots of 400 μg of protein per assay tube; host or cells: RINm5F cells, sonicated to a membrane preparation
T1 sequence (P32301 22-463): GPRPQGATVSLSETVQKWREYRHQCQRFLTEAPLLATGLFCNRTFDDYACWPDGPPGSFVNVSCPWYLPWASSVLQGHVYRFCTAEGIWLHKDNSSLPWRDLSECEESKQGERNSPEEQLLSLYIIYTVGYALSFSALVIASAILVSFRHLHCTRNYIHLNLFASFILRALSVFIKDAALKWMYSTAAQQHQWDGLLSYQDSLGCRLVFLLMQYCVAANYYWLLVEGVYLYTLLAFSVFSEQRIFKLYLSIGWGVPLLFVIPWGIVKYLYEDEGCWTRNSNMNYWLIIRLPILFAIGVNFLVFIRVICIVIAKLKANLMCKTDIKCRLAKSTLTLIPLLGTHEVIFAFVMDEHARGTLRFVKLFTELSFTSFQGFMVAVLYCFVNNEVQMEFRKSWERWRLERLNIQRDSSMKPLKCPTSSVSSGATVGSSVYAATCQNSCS
Experimental: The IC50 is calculated as the half-maximal inhibition of binding of the radiolabeled peptide; RINm5F cells (ATCC # CRL-2058) were grown according to the manufacturer's specifications. Cells from confluent flasks were maintained for four (4) days prior to the experiment. The cells were then scrapped and collected in 15 ml conical tubes followed by sonication and evaluation of protein levels. The cell membranes were diluted to obtain aliquots of 400 μg of protein per assay tube. Aliquots of RINm5F cells containing 400 μg of protein were incubated at 22° C. […] The reactions were stopped using 100 mM Tris-HCl (3×3 mL, pH 7.4) and the solutions passed through a GF/C Whatman glass microfiber filter. The latter was subsequently placed into glass tubes and counted on a Packard COBRA II Gamma counter™. Displacement isotherms were traced and analyzed using Prism™ (GraphPad, Ca).

[6] = Nauck 1996; Todd 1998; cited from earlier work
[7] = active GLP-1; Holst 1994; cited from earlier work

With “trans-3-hexenoyl-NH-His-Ala-Glu-Gly-Thr-Phe-Thr-Ser-Asp-Val-Ser-Ser-Tyr-[(S)-Octylglycine]-Glu-Gly-Gln-Ala-Ala-Lys-Glu-Phe-Ile-Ala-Trp-Leu-Val-Lys-Aib-Arg-NH2 [TH0426]” as the substance, how does the EC50 [1] read?
The EC50 was 0.4 ± 0.4 nM.

What about the Maximal response [1] of the same substance?
Its Maximal response is 5.7 ± 0.6 pmol/mg protein.

Which results are given for “trans-3-hexenoyl-NH-His-Ala-Glu-Gly-Thr-Phe-Thr-Ser-Asp-Val-Ser-Ser-Tyr-[(S)-Octylglycine]-Glu-Gly-Gln-Ala-Ala-Lys-Ala-Phe-Ile-Glu-Trp-Leu-Val-Lys-Asn-NH2 [TH0396]”?
EC50 [1]: 2.3 ± 1.7 nM; Maximal response [1]: 3.9 ± 0.3 pmol/mg protein; glucose levels of streptozotocin-induced diabetic mice [2]: down to those seen in normal feeding mice; duration of action [2]: extended duration of action; reduction of post-prandial glucose (CD-1 mice [3]): potently reduce post-prandial glucose

Which results are given for “trans-3-hexenoyl-NH-His-Ala-Glu-Gly-Thr-Phe-Thr-Ser-Asp-Val-Ser-Ser-Tyr-[(S)-Octylglycine]-Glu-Gly-Gln-Ala-Ala-Lys-Ala-Phe-Ile-Glu-Trp-Leu-Lys-Asn-NH2 [TH0395]”?
EC50 [1]: 6.1 ± 0.9 nM; Maximal response [1]: 3.7 ± 0.4 pmol/mg protein; potency compared with Exendin-4 ([2]; STZ-induced diabetic mice, initial 6 hours of the study, FIG. 14): more potent then Exendin-4™; glucose levels of streptozotocin-induced diabetic mice [2]: down to those seen in normal feeding mice; duration of action [2]: extended duration of action; reduction of post-prandial glucose (CD-1 mice [3]): potently reduce post-prandial glucose

For “2-Hydroxybenzoyl-NH-His-Ala-Glu-Gly-Thr-Phe-Thr-Ser-Asp-Val-Ser-Ser-Tyr-Leu-Glu-Gly-Gln-Ala-Ala-Lys-Glu-Phe-Ile-Ala-Trp-Leu-Val-Lys-Gly-Arg-NH2 [TH0318]”, which EC50 [1] is on record?
Its EC50 is 13.6 ± 2.9 nM.

And the Maximal response [1]?
Its Maximal response is 3.5 ± 0.2 pmol/mg protein.

And the “duration of hypoglycemic action” value (CD-1 mice [4])?
Its value is 2 h.

For “His-Gly-Glu-Gly-Thr-Phe-Thr-Ser-Asp-Val-Ser-Ser-Tyr-[(S)-Octylglycine]-Glu-Gly-Gln-Ala-Ala-Lys-Ala-Phe-Ile-Glu-Trp-Leu-Lys-Asn-NH2 [TH0397]”, which “reduction of post-prandial glucose” value (CD-1 mice [3]) is on record?
Its value is “potently reduce post-prandial glucose”.

For “His-Gly-Glu-Gly-Thr-Phe-Thr-Ser-Asp-Val-Ser-Ser-Tyr-Leu-Glu-Gly-Gln-Ala-Ala-Lys-Ala-Phe-lle-Glu-Trp-Leu-Lys-Asn-NH2 [TH0384]”, which “potency on blood glucose levels (delta glucose)” value (Sprague-Dawley rats) is on record?
The value was “more potent than GLP-1 or the 2-hydroxybenzoyl-GLP-1 analog TH0318”.

What about the “potency in displacing receptor bound ligand (125I-GLP-1(7-36)NH2)” value [5] of the same substance?
The value was “considerably more potent than GLP-1”.

Which results are given for “HAEGTFTSDVSSYLEGQAAKEFIAWLVKGR [GLP-1, reference compound]”?
EC50 [1]: 1.8 ± 0.9 nM; Maximal response [1]: 1.5 ± 0.3 pmol/mg protein; duration of hypoglycemic action [6]: 2 to 3 h; duration of hypoglycemic action (CD-1 mice [4]): 2 h; metabolic clearance rate [7]: 12 to 13 min

Which results are given for “trans-3-hexenoyl-NH-His-Ala-Glu-Gly-Thr-Phe-Thr-Ser-Asp-Val-Ser-Ser-Tyr-[(S)-Octylglycine]-Glu-Gly-Gln-Ala-Ala-Lys-Glu-Phe-Ile-Ala-Trp-Leu-Val-Lys-Gly-Arg-NH2 [TH0424]”?
EC50 [1]: 6.3 ± 1.7 nM; Maximal response [1]: 4.3 ± 0.2 pmol/mg protein; glucose levels of streptozotocin-induced diabetic mice [2]: down to those seen in normal feeding mice; duration of action [2]: extended duration of action; reduction of post-prandial glucose (CD-1 mice [3]): potently reduce post-prandial glucose

With “His-Ala-Glu-Gly-Thr-Phe-Thr-Ser-Asp-Val-Ser-Ser-Tyr-[(S)-Octylglycine]-Glu-Gly-Gln-Ala-Ala-Lys-Glu-Phe-Ile-Ala-Trp-Leu-Val-Lys-Gly-Arg-NH2 [TH0322]” as the substance, how does the EC50 [1] read?
The EC50 was 0.2 ± 0.2 nM.

What about the Maximal response [1] of the same substance?
The Maximal response was 1.0 ± 0.2 pmol/mg protein.

And the “potency in displacing receptor bound ligand (125I-GLP-1(7-36)NH2)” value [5]?
The value was “considerably more potent than GLP-1”.
